Assay results reported in ChEMBL document CHEMBL4190285, “Borapetoside E, a Clerodane Diterpenoid Extracted from Tinospora crispa, Improves Hyperglycemia and Hyperlipidemia in High-Fat-Diet-Induced Type 2 Diabetes Mice” (J Nat Prod, 2017).
The source made the active and inactive calls. The rule behind the calls is not given here.

Key:
Mus musculus [1] = experiment: Antihyperlipidemic activity in high fat diet-induced obese C57BL/6J mouse assessed as reduction in liver cholesterol levels at 20 to 40 mg/kg, ip administered twice daily for 2.5 days measured at 2 hrs post last dose; format: functional, organism-based
Mus musculus [2] = experiment: Improvement in insulin resistance in high fat diet-induced obese C57BL/6J mouse assessed as reduction in fasting serum glucose level at 40 mg/kg, ip pretreated twice daily for 2.5 days followed by insulin challenge at 2 hrs post last dose measured up to 2 hrs by ITT; format: functional, organism-based
Mus musculus [3] = experiment: Improvement in serum AST level in HFFD-induced obese C57BL/6J mouse assessed as serum AST level at 40 mg/kg, ip administered twice daily for 2.5 days followed by once daily dosing up to 16 days measured at 2 hrs post last dose (reference value: 15.14 +/- 3.84 IU/L); format: functional
Mus musculus [4] = experiment: Antihyperlipidemic activity in high fat diet-induced obese C57BL/6J mouse assessed as reduction in free fatty acid level in epididymis adipose tissue at 20 to 40 mg/kg, ip administered twice daily for 2.5 days measured at 2 hrs post last dose; format: functional, organism-based
Mus musculus [5] = experiment: Down regulation of FAS mRNA expression in HFD-induced obese C57BL/6J mouse liver at 20 to 40 mg/kg, ip administered twice daily for 2.5 days measured at 2 hrs post last dose by RT-PCR analysis; format: functional, organism-based
Mus musculus [6] = experiment: Down regulation of LXRalpha mRNA expression in HFD-induced obese C57BL/6J mouse liver at 20 to 40 mg/kg, ip administered twice daily for 2.5 days measured at 2 hrs post last dose by RT-PCR analysis; format: functional, organism-based
Mus musculus [7] = experiment: Down regulation of ACL1 mRNA expression in HFD-induced obese C57BL/6J mouse liver at 20 to 40 mg/kg, ip administered twice daily for 2.5 days measured at 2 hrs post last dose by RT-PCR analysis; format: functional, organism-based
Mus musculus [8] = experiment: Down regulation of SREBP1 mRNA expression in HFD-induced obese C57BL/6J mouse adipose tissue at 20 to 40 mg/kg, ip administered twice daily for 2.5 days measured at 2 hrs post last dose by RT-PCR analysis; format: functional, organism-based
Mus musculus [9] = experiment: Increase in oxygen consumption in HFFD-induced obese C57BL/6J mouse at 40 mg/kg, ip administered twice daily for 2.5 days measured up to 12.6 hrs under dark condition; format: functional, organism-based
Mus musculus [10] = experiment: Improvement in insulin resistance in high fat diet-induced obese C57BL/6J mouse assessed as reduction in fasting serum insulin level at 40 mg/kg, ip pretreated twice daily for 2.5 days followed by insulin challenge at 2 hrs post last dose measured up to 2 hrs by ELISA based ITT; format: functional, organism-based
Mus musculus [11] = experiment: Antihyperlipidemic activity in high fat diet-induced obese C57BL/6J mouse assessed as serum LDL-C levels at 40 mg/kg, ip administered twice daily for 2.5 days measured at 2 hrs post last dose (reference value: 2.54 +/- 0.87 mmol/L); format: functional
Mus musculus [12] = experiment: Down regulation of SREBP1 mRNA expression in HFD-induced obese C57BL/6J mouse liver at 20 to 40 mg/kg, ip administered twice daily for 2.5 days measured at 2 hrs post last dose by RT-PCR analysis; format: functional, organism-based
Mus musculus [13] = experiment: Down regulation of HMGCS mRNA expression in HFD-induced obese C57BL/6J mouse adipose tissue at 20 to 40 mg/kg, ip administered twice daily for 2.5 days measured at 2 hrs post last dose by RT-PCR analysis; format: functional, organism-based
Mus musculus [14] = experiment: Down regulation of pre-SREBP1 expression in HFD-induced obese C57BL/6J mouse liver at 20 to 40 mg/kg, ip administered twice daily for 2.5 days measured at 2 hrs post last dose by Western blot analysis; format: functional, organism-based
Mus musculus [15] = experiment: Down regulation of FAS mRNA expression in HFD-induced obese C57BL/6J mouse adipose tissue at 20 to 40 mg/kg, ip administered twice daily for 2.5 days measured at 2 hrs post last dose by RT-PCR analysis; format: functional, organism-based
Mus musculus [16] = experiment: Improvement in insulin resistance in high fat diet-induced obese C57BL/6J mouse assessed as increase in insulin sensitivity index at 40 mg/kg, ip pretreated twice daily for 2.5 days followed by insulin challenge at 2 hrs post last dose measured up to 2 hrs by ITT; format: functional, organism-based
Mus musculus [17] = experiment: Down regulation of ABCG8 mRNA expression in HFD-induced obese C57BL/6J mouse liver at 20 to 40 mg/kg, ip administered twice daily for 2.5 days measured at 2 hrs post last dose by RT-PCR analysis; format: functional, organism-based
Mus musculus [18] = experiment: Toxicity in HFFD-induced obese C57BL/6J mouse assessed as effect on food intake at 40 mg/kg, ip administered twice daily for 2.5 days followed by once daily dosing up to 16 days measured daily during compound dosing; format: organism-based; settings: in vivo
Mus musculus [19] = experiment: Antiobesity activity in HFFD-induced obese C57BL/6J mouse assessed as reduction in size of adipocytes at 40 mg/kg, ip administered twice daily for 2.5 days followed by once daily dosing up to 16 days measured at 2 hrs post last dose by hematoxylin-eosin staining based histological analysis; format: functional, organism-based
Mus musculus [20] = experiment: Antihyperlipidemic activity in high fat diet-induced obese C57BL/6J mouse assessed as reduction in triglyceride level in epididymis adipose tissue at 20 to 40 mg/kg, ip administered twice daily for 2.5 days measured at 2 hrs post last dose; format: functional, organism-based
Mus musculus [21] = experiment: Down regulation of n-SREBP1 expression in HFD-induced obese C57BL/6J mouse liver at 20 to 40 mg/kg, ip administered twice daily for 2.5 days measured at 2 hrs post last dose by Western blot analysis; format: functional, organism-based
Mus musculus [22] = experiment: Antiobesity activity in HFFD-induced obese C57BL/6J mouse assessed as reduction in hepatic steatosis at 40 mg/kg, ip administered twice daily for 2.5 days followed by once daily dosing up to 16 days measured at 2 hrs post last dose by Oil red O staining based histological analysis; format: functional, organism-based
Mus musculus [23] = experiment: Down regulation of HMGCR mRNA expression in HFD-induced obese C57BL/6J mouse liver at 20 to 40 mg/kg, ip administered twice daily for 2.5 days measured at 2 hrs post last dose by RT-PCR analysis; format: functional, organism-based
Mus musculus [24] = experiment: Down regulation of ABCG5 mRNA expression in HFD-induced obese C57BL/6J mouse liver at 20 to 40 mg/kg, ip administered twice daily for 2.5 days measured at 2 hrs post last dose by RT-PCR analysis; format: functional, organism-based
Mus musculus [25] = experiment: Antihyperlipidemic activity in high fat diet-induced obese C57BL/6J mouse assessed as serum free fatty acid levels at 20 mg/kg, ip administered twice daily for 2.5 days measured at 2 hrs post last dose (reference value: 1.41 +/- 0.3 mmol/L); format: functional
Mus musculus [26] = experiment: Improvement in insulin resistance in high fat diet-induced obese C57BL/6J mouse assessed as increase in phosphorylated AKT ser473 level in liver at 40 mg/kg, ip administered twice daily for 2.5 days measured at 2 hrs post last dose by Western blot analysis; format: functional, organism-based
Mus musculus [27] = experiment: Increase in carbon dioxide production in HFD-induced obese C57BL/6J mouse at 40 mg/kg, ip administered twice daily for 2.5 days measured up to 12.6 hrs under dark condition; format: functional, organism-based

**Q.** How did the Activity (Mus musculus [1]) turn out when `COC(=O)C1=CCC[C@H]2[C@](C)(C[C@@H](O[C@@H]3O[C@H](CO)[C@@H](O)[C@H](O)[C@H]3O)c3ccoc3)[C@H]3C[C@H](OC3=O)[C@@]12C` was run?
**A.** Its Activity is “Active”.

**Q.** What about the Activity (Mus musculus [2]) of the same molecule?
**A.** Its Activity is “Active”.

**Q.** And the Activity (Mus musculus [3])?
**A.** Its Activity is 8.61 IU/L.

**Q.** And the Activity (Mus musculus [4])?
**A.** Its Activity is “Active”.

**Q.** And the Activity (Mus musculus [5])?
**A.** The Activity was “Active”.

**Q.** What about the Activity (Mus musculus [6]) of the same molecule?
**A.** The Activity was “Active”.

**Q.** What about the Activity (Mus musculus [7]) of the same molecule?
**A.** Its Activity is “Active”.

**Q.** And the Activity (Mus musculus [8])?
**A.** Its Activity is “Active”.

**Q.** And the Activity (Mus musculus [9])?
**A.** Its Activity is “Active”.

**Q.** And the Activity (Mus musculus [10])?
**A.** The Activity was “Active”.

**Q.** And the Activity (Mus musculus [11])?
**A.** Its Activity is 1.65 mmol/L.

**Q.** And the Activity (Mus musculus [12])?
**A.** The Activity was “Active”.

**Q.** And the Activity (Mus musculus [13])?
**A.** The Activity was “Active”.

**Q.** What about the Activity (Mus musculus [14]) of the same molecule?
**A.** The Activity was “Active”.

**Q.** What about the Activity (Mus musculus [15]) of the same molecule?
**A.** The Activity was “Active”.

**Q.** And the Activity (Mus musculus [16])?
**A.** Its Activity is “Active”.

**Q.** What about the Activity (Mus musculus [17]) of the same molecule?
**A.** The Activity was “Active”.

**Q.** What about the Activity (Mus musculus [18]) of the same molecule?
**A.** The Activity was “Non-Toxic”.

**Q.** What about the Activity (Mus musculus [19]) of the same molecule?
**A.** Its Activity is “Active”.

**Q.** And the Activity (Mus musculus [20])?
**A.** Its Activity is “Active”.

**Q.** And the Activity (Mus musculus [21])?
**A.** The Activity was “Active”.

**Q.** And the Activity (Mus musculus [22])?
**A.** The Activity was “Active”.

**Q.** And the Activity (Mus musculus [23])?
**A.** The Activity was “Active”.

**Q.** What about the Activity (Mus musculus [24]) of the same molecule?
**A.** The Activity was “Active”.

**Q.** And the Activity (Mus musculus [25])?
**A.** Its Activity is 1.39 mmol/L.

**Q.** And the Activity (Mus musculus [26])?
**A.** The Activity was “Active”.

**Q.** What about the Activity (Mus musculus [27]) of the same molecule?
**A.** Its Activity is “Active”.
